Measured values from patent US12631626B2, “Continuous real-time monitoring of biomolecules in live subjects” (priority 2020, dated 2026).

Experiment: Glucose measurement (RTCM and glucose meter) in an awake diabetic rat after insulin injection
Assay type: in vivo
Conditions: conscious diabetic rat, after 40 minutes, same amount of insulin as in anesthetized rats
Description: FIGS. 6A-6B show glucose and insulin measurements in an awake diabetic rat. An awake diabetic rat was injected with human insulin, with blood samples collected at t=0, 5, 20, and 40 min after injection. Glucose levels were measured using RTCM and glucose meter (FIG. 6A), and insulin levels were measured using RTCM and ELISA (FIG. 6B).
Male Sprague Dawley rats (Charles River) were used for experiments. Animal studies were performed in accordance with the guidelines for the care and use of laboratory animals; all protocols were approved by the Stanford Institutional Animal Care and Use Committee. The protocol used for STZ induction adapted from the protocol by Kenneth K. Wu and Youming Huan (Wu, K. K., & Huan, Y. Streptozotocin-induced diabetic models in mice and rats. Curr. Protoc. Pharmacol. 5, 1-14 (2008)). Briefly, male Sprague Dawley rats 160-230 g (8-10 weeks) were weighed and fasted 6-8 hours prior to treatment with STZ. STZ was diluted to 10 mg/mL in the sodium citrate buffer immediately before injection. STZ solution was injected intraperitoneally at 65 mg/kg into each rat. Rats were provided with water containing 10% sucrose for 24 hours after injection with STZ. Rat blood glucose levels were tested for hyperglycemia daily after the STZ treatment via tail vein blood collection using a handheld Bayer Contour Next glucose monitor (Bayer). […]

insulin: human insulin injected into an awake diabetic rat, same amount as in anesthetized rats; probably Humulin R
Decrease in glucose level: 7 mM
